Common to all, as to format: in vivo
In experiment [1] the test system is Nezara viridula (southern green stink bug larvae). In words: Nezara viridula spray test. The note with it: 96 h, application rate 500 g/ha, barley plants, after 4 days. As to the method: Nezara viridula—Spray Test
(§1) Solvent: 78.0 parts by weight of acetone • • 1.5 parts by weight of dimethylformamide
(§2) Emulsifier: alkylarylpolyglycol ether
(§3) To produce a suitable preparation of active compound, 1 part by weight of active compound is mixed with the stated amount of solvent, and the concentrate is diluted with water, containing an emulsifier concentration of 1000 ppm, to the desired concentration. Further test concentrations are prepared by dilution with emulsifier containing water.
Barley plants (Hordeum vulgare) are sprayed with a test solution containing the desired concentration of the active ingredient and are infested with larvae of the southern green stink bug (Nezara viridula).
After 4 days mortality in % is determined. 100% means all the stink bugs have been killed; 0% means none of the stink bugs have been killed.

Experiment [2] relates to Diabrotica balteata (banded cucumber beetle larvae). In words: Diabrotica balteata spray test. The note with it: 168 h, wheat seeds, after 7 days, read-out: efficacy (seedlings grown up like untreated, uninfected control). As to the method:
Diabrotica balteata—Spray Test
as §1, §2, §3
Soaked wheat seeds (Triticum aestivum) are placed in a multiple well plate filled with agar and some water and are incubated for 1 day to germinate (5 seeds per well). The germinated wheat seeds are sprayed with a test solution containing the desired concentration of the active ingredient. Afterwards each unit is infected with 10-20 larvae of the banded cucumber beetle (Diabrotica balteata).
After 7 days efficacy in % is determined. 100% means all the seedlings have grown up like in the untreated, uninfected control; 0% means none of the seedlings have grown.

Experiment [3] concerns Rhipicephalus (Boophilus) microplus larvae (strain Parkhurst, resistant against synthetic pyrethroids). In words: Rhipicephalus (Boophilus) microplus in-vitro contact test, larval cattle tick. The note with it: application rate 5 μg/cm^2 (=500 g/ha); after 48 hours. As to the method: Rhipicephalus (Boophilus) microplus—In-Vitro Contact Tests Larval Cattle Tick (Strain Parkhurst, Resistant Against Synthetic Pyrethroids)
9 mg compound is solved in 1 mL acetone and diluted with acetone to the desired concentration. 250 μL of the test solution is filled in 25 mL glass test tubes and homogeneously distributed on the inner walls by rotation and tilting on a shaking device (2 h at 30 rpm). With a compound concentration of 900 ppm, an inner surface of 44.7 cm^2 and a homogeneous distribution, a dose of […] is achieved.
After the solvent has evaporated, each test tube is filled with 20-50 cattle tick larvae (Rhipicephalus microplus), closed with a perforated lid and incubated in a horizontal position at 85% relative humidity and 27° C. in an incubator. After 48 hours efficacy is determined. The larvae are patted on the ground of the tubes and negative geotactic behavior is recorded.
An efficacy of 100% means all larvae are dead or moribund; 0% means no larvae are dead or moribund.

Experiment [4] has as its system Myzus persicae (green peach aphid). In words: Myzus persicae oral test. The following applies: 120 h, application rate 20 ppm, after 5 days. How it is done: Solvent: 100 parts by weight acetone
To produce a suitable preparation of active compound, 1 part by weight of active compound is mixed with the stated amount of solvent, and the concentrate is diluted with water to the desired concentration.
50 μL compound solution is filled in microtiter plates and 150 μL IPL41 insect medium (33%+15% sugar) is added to obtain a total volume of 200 μL per well. Afterwards the plates are sealed with parafilm through which a mixed population of the green peach aphid (Myzus persicae) can suck on the compound preparation.
After 5 days mortality in % is determined. 100% means all aphids have been killed and 0% means none of the aphids have been killed.

Experiment [5] relates to Rhipicephalus sanguineus (adult brown dog ticks). Kind of experiment: Rhipicephalus sanguineus in-vitro contact test, adult brown dog ticks. The note with it: application rate 5 μg/cm^2 (=500 g/ha); after 48 hours. As to the method: Rhipicephalus sanguineus—In-Vitro Contact Tests with Adult Brown Dog Ticks
9 mg compound is solved in 1 mL acetone and diluted with acetone to the desired concentration. 250 μL of the test solution is filled in 25 mL glass test tubes and homogeneously distributed on the inner walls by rotation and tilting on a shaking device (2 h at 30 rpm). With a compound concentration of 900 ppm, an inner surface of 44.7 cm^2 and a homogeneous distribution, a dose of 5 μg/cm^2 is achieved.
After the solvent has evaporated, each test tube is filled with 5-10 adult brown dog ticks (Rhipicephalus sanguineus), closed with a perforated lid and incubated in a lying position at room temperature and relative humidity. After 48 hours efficacy is determined. The ticks are patted on the ground of the tubes and are incubated on a heating plate at 45-50° C. for at most 5 minutes. Immotile or uncoordinated moving ticks, which are not able to escape the heat by climbing upwards, are marked as dead or moribund.
An efficacy of 100% means all ticks are dead or moribund; 0% means no ticks are dead or moribund.

`CC(NC(=O)c1cc(Cl)cc(S(C)(=O)=O)c1)c1nccnc1-n1nccn1` (racemic) [Example I-1, (rac)-3-Chloro-5-(methylsulfonyl)-N-{1-[3-(2H-1,2,3-triazol-2-yl)pyrazin-2-yl]ethyl}benzamide]: the mortality at 500 g/ha in experiment [1] was 100%. In addition, the pest or weed control at 32 µg/disc, 100 g/ha in experiment [2] (application rate 100 g/ha (=32 μg/well)) was 100%. In addition, the pest or weed control at 160 µg/disc, 500 g/ha in experiment [2] (application rate 500 g/ha (=160 μg/well)) came out at 100%. In addition, the “efficacy (larvae dead or moribund)” value in experiment [3] was 90%. In experiment [4], the mortality at 20 ppm turned out to be 100%. Moreover, the “efficacy (ticks dead or moribund)” value in experiment [5] is 100%.

Source of the values: patent US20230242513A1, “NOVEL HETEROARYL-SUBSTITUTED PYRAZINE DERIVATIVES AS PESTICIDES” (Bayer Animal Health GmbH, priority 2020, published 2023).
